According to patent US8318757B2, “Substituted isoxazoline compound and pest control agent” (Nissan Chemical Industries, Ltd., priority 2007, dated 2012):
Where two headings read alike, the source gives them in different places.

How the values were obtained:
Assay type in all cases: in vivo
[1] = tested on: Spodoptera litura; assay: whole plant or invertebrate; details: 144 h
Description: (§1) A 10% emulsifiable concentrate of the compound of the present invention (depending on the type of the compound, a 10% wettable powder was subjected to the test) was diluted with water containing a spreader to prepare a drug solution in a concentration of 10 ppm. In this drug solution, a leaf of cabbage was immersed for about 10 seconds and was air-dried and then put into a petri dish. In the petri dish, five 2 instar larvae of Spodoptera litura per petri dish were released and the petri dish was capped and stored in a thermostatic room of 25° C. The number of killed larvae after 6 days was measured and the mortality was calculated from the same calculation formula as that in Test Example 1. Here, the test was carried out on the duplicate samples.

[2] = tested on: Plutella xylostella; assay: whole plant or invertebrate; details: 144 h
Description: as §1, with “Plutella xylostella” for “Spodoptera litura”, “following” for “same”, “formula: Mortality (%)=(number of killed insect/number of released insect)×100.” for “formula as that in Test Example 1.”

[3] = tested on: Spodoptera exigua; assay: Mortality Test for Spodoptera exigua; details: 144 h
Description: as §1, with “of 100” for “of 10”, “Spodoptera exigua” for “Spodoptera litura”

[4] = tested on: Aculops pelekassi; assay: whole plant or invertebrate; details: 144 h
Description: (§2) In a styrol cup having an inner diameter of 7 cm, a wet filtration paper was laid and on the paper, a leaf of mandarin orange cut out so as to have the same diameter as the inner diameter of the cup was laid, followed by inoculating ten larvae of Aculops pelekassi per leaf with the leaf. A 10% emulsifiable concentrate of the compound of the present invention (depending on the type of the compound, a 10% wettable powder was subjected to the test) was diluted with water containing a spreader to prepare a drug solution in a concentration of 100 ppm. The drug solution was sprayed using a rotary spray tower in an amount of 2.5 mL per styrol cup, and the cup was capped and stored in a thermostatic room of 25° C. The number of killed larvae after 6 days was measured and the mortality was calculated from the same calculation formula as that in Test Example 1. Here, the test was carried out on the duplicate samples.

[5] = tested on: Nilaparvata lugens; assay: whole plant or invertebrate; details: 144 h
Description: (§3) A 10% emulsifiable concentrate of the compound of the present invention (depending on the type of the compound, a 10% wettable powder was subjected to the test) was diluted with water containing a spreader to prepare a drug solution in a concentration of 500 ppm. In this drug solution, a leaf sheath of rice was immersed for about 10 seconds and was air-dried and then put into a test tube. In the test tube, five 2 instar larvae of Nilaparvata lugens per test tube were released and the test tube was capped with a sponge and stored in a thermostatic room of 25° C. The number of killed larvae after 6 days was measured and the mortality was calculated from the same calculation formula as that in Test Example 1. Here, the test was carried out on the duplicate samples.

[6] = tested on: Myzus persicae; assay: whole plant or invertebrate; details: 144 h
Description: In a glass petri dish having an inner diameter of 3 cm, a wet absorbent cotton was laid and on the cotton, a leaf of cabbage cut out so as to have the same diameter as the inner diameter of the petri dish was laid, followed by releasing four apterous imagines of Myzus persicae on the leaf. After one day, a 10% emulsifiable concentrate of the compound of the present invention (depending on the type of the compound, a 10% wettable powder was subjected to the test) was diluted with water containing a spreader to prepare a drug solution in a concentration of 500 ppm. The drug solution was sprayed using a rotary spray tower (2.5 mg/cm^2), and the petri dish was capped and stored in a thermostatic room of 25° C. The number of killed imagines after 6 days was measured and the mortality was calculated from the same calculation formula as that in Test Example 1. Here, the test was carried out on the duplicate samples.

[7] = tested on: Homona magnanima; assay: Mortality Test for Homona magnanima; details: in Brassica oleracea, 144 h
Description: as §1, with “of 100” for “of 10”, “of Homona magnanima” for “of Spodoptera litura”

[8] = tested on: Liriomyza trifolii; assay: whole plant or invertebrate; details: 144 h
Description: as §3, with “leaf” for “leaf sheath”, “kidney bean which was cut out to a diameter of 7 cm, on which Liriomyza trifolii laid eggs (10 eggs/leaf)” for “rice”, “laid on” for “put into”, “wet filtration paper laid in a styrol cup having an inner diameter” for “test tube. In the test tube, five 2 instar larvae”, “7 cm. The styrol cup” for “Nilaparvata lugens per test tube were released and the test tube”, “capped” for “capped with a sponge”

[9] = tested on: Bemisia argentifolii; assay: whole plant or invertebrate; details: 144 h
Description: In a styrol cup having an inner diameter of 7 cm, a wet filtration paper was laid and on the paper, a cut-out leaf of tomato on which Bemisia argentifolii laid eggs (10 eggs/leaf) was laid. A 10% emulsifiable concentrate of the compound of the present invention (depending on the type of the compound, a 10% wettable powder was subjected to the test) was diluted with water containing a spreader to prepare a drug solution in a concentration of 500 ppm. The drug solution was sprayed using a rotary spray tower in an amount of 2.5 mL per styrol cup, and the cup was capped and stored in a thermostatic room of 25° C. The number of killed larvae after 6 days was measured and the mortality was calculated from the same calculation formula as that in Test Example 1. Here, the test was carried out on the duplicate samples.

[10] = tested on: Cat Flea; assay: Mortality Test for Cat Flea; details: Ctenocephalides felis, 96 h
Description: To the bottom surface and the side surface of a petri dish having an inner diameter of 5.3 cm, 400 μL of an acetone solution in which 4 mg of the compound of the present invention was dissolved in 40 mL of acetone (concentration: 100 ppm) was applied and then acetone was volatilized to form a thin film of the compound of the present invention on the inner wall of the petri dish. […] In the petri dish, ten Ctenocephalides felis imagines (male and female were mixed) were released and the petri dish was capped and stored in a thermostat room of 25° C. The number of killed imagines after 4 days was measured and the mortality was calculated from the same calculation formula as that in Test Example 1. Here, the test was carried out on the single sample.

[11] = tested on: American Dog Tick; assay: Mortality Test for American Dog Tick; details: Dermacentor variabilis, 96 h; thin film in petri dishes, applied drug 0.1 μg/cm^2; protonymphs; after 4 days
Description: To the bottom surface and the side surface of two petri dishes having an inner diameter of 5.3 cm, 400 μL of an acetone solution in which 4 mg of the compound of the present invention was dissolved in 40 mL of acetone (concentration: 100 ppm) was applied and then acetone was volatilized to form a thin film of the compound of the present invention on the inner wall of the petri dishes. […] In one of the petri dishes, ten American dog tick (Dermacentor variabilis) protonymphs (male and female were mixed) were released, and the petri dish was capped with the other petri dish. […] The number of killed protonymphs after 4 days was measured and the mortality was calculated from the same calculation formula as that in Test Example 1. Here, the test was carried out on the single sample.

[12] = tested on: Tetranychus urticae; assay: whole plant or invertebrate; details: in Phaseolus vulgaris, 144 h
Description: as §2, with “kidney bean” for “mandarin orange”, “Tetranychus urticae” for “Aculops pelekassi”, “500” for “100”

[13] = tested on: Frankliniella occidentalis; assay: whole plant or invertebrate; details: in Phaseolus vulgaris, 48 h
Description: as §2, with “kidney bean” for “mandarin orange”, “ten 1 instar” for “ten”, “Frankliniella occidentalis” for “Aculops pelekassi”, “500” for “100”, “2” for “6”

[14] = drug solution 100 ppm (mark *), cabbage leaf immersed, 2 instar larvae, after 6 days, read-out: mortality

CS(CC(=O)NCc1ccc(C2=NOC(c3cc(Cl)c(Cl)c(C(F)(F)F)c3)(C(F)(F)F)C2)cc1Br)=NC(=O)C(F)(F)F (stereo not drawn) [1-102, N-[2-bromo-4-[5-[3,4-dichloro-5-(trifluoromethyl)phenyl]-5-trifluoromethyl-4,5-dihydroisoxazole-3-yl]phenyl]methyl-2-[N-(trifluoroacetyl)methylsulfinimidoyl]acetamide]
≥ 80%: mortality at 10 ppm ([1]; in Brassica oleracea) | mortality at 10 ppm ([2]; in Brassica oleracea) | mortality at 100 ppm ([3]; in Brassica oleracea) | mortality at 100 ppm [4]

CS(=O)(=O)CC(=O)NCc1ccc(C2=NOC(c3cc(Br)cc(C(F)(F)F)c3)(C(F)(F)F)C2)cc1Cl (stereo not drawn) [1-113, N-[4-[5-[3-bromo-5-(trifluoromethyl)phenyl]-5-trifluoromethyl-4,5-dihydroisoxazole-3-yl]-2-chlorophenyl]methyl-2-(methylsulfonyl)acetamide]
≥ 80%: mortality at 500 ppm ([5]; drug solution 500 ppm, rice leaf sheath immersed, 2 instar larvae, after 6 days, read-out: mortality) | mortality at 100 ppm [1, 14] | mortality at 500 ppm ([6]; drug solution 500 ppm sprayed, cabbage leaf, apterous imagines, after 6 days, read-out: mortality) | mortality at 100 ppm [7] | mortality at 500 ppm ([8]; drug solution 500 ppm, kidney bean leaf with eggs immersed, after 6 days, read-out: mortality) | mortality at 100 ppm [2, 14] | mortality at 500 ppm ([9]; drug solution 500 ppm sprayed, tomato leaf with eggs, after 6 days, read-out: mortality) | mortality at 100 ppm ([3]; drug solution 100 ppm, cabbage leaf immersed, 2 instar larvae, after 6 days, read-out: mortality) | mortality at 100 ppm ([4]; drug solution 100 ppm sprayed, mandarin orange leaf, larvae, after 6 days, read-out: mortality)

CSC(SC)C(=O)NCc1ccc(C2=NOC(c3cc(C(F)(F)F)cc(C(F)(F)F)c3)(C(F)(F)F)C2)cc1Cl (stereo not drawn) [1-206, N-[4-[5-[3,5-bis(trifluoromethyl)phenyl]-5-trifluoromethyl-4,5-dihydroisoxazole-3-yl]-2-chlorophenyl]methyl-2,2-bis(methylthio)acetamide]
≥ 80%: mortality at 1 µg/cm2 [10] | mortality at 0.1 µg/cm2 [11] | mortality at 100 ppm ([3]; in Brassica oleracea) | mortality at 100 ppm [4]

CCSCC(=O)N(C)Cc1ccc(C2=NOC(c3cc(Cl)c(Cl)c(Cl)c3)(C(F)(F)F)C2)cc1Cl (stereo not drawn) [2-002, N-[2-chloro-4-[5-(3,4,5-trichlorophenyl)-5-trifluoromethyl-4,5-dihydroisoxazole-3-yl]phenyl]methyl-2-ethylthio-N-methylacetamide]
≥ 80%: mortality at 500 ppm ([5]; in Oryza sativa) | mortality at 500 ppm ([6]; in Brassica oleracea) | mortality at 100 ppm [7] | mortality at 500 ppm [12] | mortality at 500 ppm [13] | mortality at 500 ppm ([9]; in Solanum lycopersicum)

CCS(=O)(=O)CC(=O)N(C)Cc1ccc(C2=NOC(c3cc(Cl)c(Cl)c(Cl)c3)(C(F)(F)F)C2)cc1Cl (stereo not drawn) [2-005, N-[2-chloro-4-[5-(3,4,5-trichlorophenyl)-5-trifluoromethyl-4,5-dihydroisoxazole-3-yl]phenyl]methyl-2-ethylsulfonyl-N-methylacetamide]
≥ 80%: mortality at 500 ppm ([5]; in Oryza sativa) | mortality at 500 ppm ([6]; in Brassica oleracea) | mortality at 100 ppm [7] | mortality at 500 ppm [12] | mortality at 500 ppm [13] | mortality at 500 ppm ([8]; in Phaseolus vulgaris) | mortality at 500 ppm ([9]; in Solanum lycopersicum)
